From ChEMBL document CHEMBL1949618, “Synthesis and properties of mRNA cap analogs containing imidodiphosphate moiety--fairly mimicking natural cap structure, yet resistant to enzymatic hydrolysis” (Bioorg Med Chem, 2012)
Activity calls are given as the source filed them. No cut-off for these calls is given here.

Experiments:
[1] = Chemical stability of the compound in aqueous buffer at pH 2 assessed as decomposition at 5 mM up to 2 hrs by RP-HPLC; format: physicochemical; conditions: pH 2, 2 h, 5000 µM
[2] = Chemical stability of the compound in aqueous buffer at pH 2 assessed as decomposition at 5 mM after 24 hrs by RP-HPLC; format: physicochemical; conditions: read-out: Drug degradation
[3] = Chemical stability of the compound in aqueous buffer at pH 6 assessed as decomposition at 5 mM up to 2 hrs by RP-HPLC; format: physicochemical; conditions: pH 6, 2 h, 5000 µM
[4] = Chemical stability of the compound in aqueous buffer at pH 6 assessed as decomposition at 5 mM after 24 hrs by RP-HPLC; format: physicochemical; conditions: read-out: Drug degradation
[5] = Chemical stability of the compound in aqueous buffer at pH 8 assessed as decomposition at 5 mM up to 2 hrs by RP-HPLC; format: physicochemical; conditions: pH 8, 2 h, 5000 µM
[6] = Chemical stability of the compound in aqueous buffer at pH 8 assessed as decomposition at 5 mM after 24 hrs by RP-HPLC; format: physicochemical; conditions: read-out: Drug degradation
[7] = Stability of the compound at -20 degreeC after 12 months; format: physicochemical; conditions: 8766 h
[8] = target: Eukaryotic translation initiation factor 4E (Homo sapiens) (UniProt P06730); assay: Binding affinity to recombinant eIF4E by fluorescence quenching titration method
[9] = Stability of the compound assessed as human recombinant DcpS -mediated hydrolysis after 2 hrs by HPLC; format: ADME
[10] = species on record: Homo sapiens; assay: Selectivity ratio of Ka for human recombinant DcpS to Ka for eIF4E
[11] = tested on: Nucleic Acid; assay: Capping efficiency in mRNA after 60 mins by gel electrophoresis in the presence of SP6 polymerase; format: nucleic-acid assay
[12] = target: Eukaryotic translation initiation factor 4E (Oryctolagus cuniculus) (UniProt P29338); assay: Inhibition of eIF4E-mediated mRNA translation in rabbit reticulocyte lysate assessed as translation efficiency after 60 mins by luciferase reporter gene assay relative to m7GpppG-capped mRNA
[13] = target: T1, m7GpppX diphosphatase (Homo sapiens) (UniProt Q96C86)
T1 sequence (whole entry): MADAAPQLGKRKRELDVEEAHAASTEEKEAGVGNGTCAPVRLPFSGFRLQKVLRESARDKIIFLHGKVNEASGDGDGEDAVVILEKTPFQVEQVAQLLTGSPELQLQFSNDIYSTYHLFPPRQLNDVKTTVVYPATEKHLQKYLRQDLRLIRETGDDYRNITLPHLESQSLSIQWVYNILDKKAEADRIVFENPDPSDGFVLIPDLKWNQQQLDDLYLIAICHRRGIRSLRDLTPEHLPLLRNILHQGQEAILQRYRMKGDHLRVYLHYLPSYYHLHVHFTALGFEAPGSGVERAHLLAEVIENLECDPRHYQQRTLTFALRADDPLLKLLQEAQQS
Description: Binding affinity to human recombinant DcpS by fluorescence quenching titration method

[14] = (§1) Stability of the compound assessed as human recombinant DcpS -mediated hydrolysis after 90 mins by HPLC; format: ADME; conditions: 1.5 h
[15] = target: T2, Eukaryotic translation initiation factor 4E (Oryctolagus cuniculus, UniProt P29338); assay: Inhibition of eIF4E-mediated mRNA translation in rabbit reticulocyte lysate by luciferase reporter gene assay
[16] = target: T2, Eukaryotic translation initiation factor 4E; assay: Inhibition of eIF4E-mediated mRNA translation in rabbit reticulocyte lysate pre-incubated for 60 mins prior to mRNA addition by luciferase reporter gene assay
[17] = tested on: DcpS; assay: as §1; format: ADME; conditions: human, recombinant DcpS; read-out: Drug degradation

Eukaryotic translation initiation factor 4E (Homo sapiens), sequence (P06730 whole entry): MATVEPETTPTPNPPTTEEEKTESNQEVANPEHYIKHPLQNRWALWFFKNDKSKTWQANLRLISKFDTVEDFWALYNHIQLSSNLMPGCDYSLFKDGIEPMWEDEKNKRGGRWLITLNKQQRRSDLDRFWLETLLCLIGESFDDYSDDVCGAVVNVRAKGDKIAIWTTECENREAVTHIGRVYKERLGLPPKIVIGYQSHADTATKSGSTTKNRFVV
Eukaryotic translation initiation factor 4E (Oryctolagus cuniculus), sequence (P29338 whole entry): as the sequence (P06730 whole entry) above, with T16P, T17A, E174D counted along it
T2 sequence (P29338 whole entry): as the sequence (P06730 whole entry) above, with T16P, T17A, E174D counted along it

Structure (SMILES) | Drug degradation [1] | degraded at 24 h, 5000 µM [2] | Drug degradation [3] | degraded at 24 h, 5000 µM [4] | Drug degradation [5] | degraded at 24 h, 5000 µM [6] | Stability [7] | Ka [8] | Drug degradation [9] | Ratio [10] | Activity [11] | fold change (FC) [12] | Ka [13] | Drug degradation [14] | IC50 [15] | IC50 [16] | metabolised at 1.5 h [17]
CO[C@@H]1[C@H](O)[C@@H](COP(=O)([O-])NP(=O)(O)OP(=O)(O)OP(=O)(O)OC[C@H]2O[C@@H](n3cnc4c(=O)[nH]c(N)nc43)[C@H](O)[C@@H]2O)O[C@H]1n1c[n+](C)c2c(=O)[nH]c(N)nc21.N.N.N | Not Active | < 10% | Not Active | < 10% | Not Active | < 10% | Stable | 125 µM⁻¹ | Not Active | 0.38 | Active | 0.73 | 47.4 µM⁻¹ | – | – | – | –
C[n+]1cn([C@@H]2O[C@H](COP(=O)([O-])OP(=O)(O)OP(=O)(O)NP(=O)(O)OC[C@H]3O[C@@H](n4cnc5c(=O)[nH]c(N)nc54)[C@H](O)[C@@H]3O)[C@@H](O)[C@H]2O)c2nc(N)[nH]c(=O)c21.N.N.N | Not Active | < 10% | Not Active | < 10% | Not Active | < 10% | Stable | 141 µM⁻¹ | Active | – | – | – | – | – | 3.52 µM | 16 µM | –
C[n+]1cn([C@@H]2O[C@H](COP(=O)([O-])NP(=O)(O)OP(=O)(O)OC[C@H]3O[C@@H](n4cnc5c(=O)[nH]c(N)nc54)[C@H](O)[C@@H]3O)[C@@H](O)[C@H]2O)c2nc(N)[nH]c(=O)c21.N.N | Not Active | < 10% | Not Active | < 10% | Not Active | < 10% | Stable | 14.6 µM⁻¹ | Not Active | 15 | – | – | 218 µM⁻¹ | – | 3.97 µM | 3.74 µM | –

Second part, the molecule after the results:

Drug degradation [1] | degraded at 24 h, 5000 µM [2] | Drug degradation [3] | degraded at 24 h, 5000 µM [4] | Drug degradation [5] | degraded at 24 h, 5000 µM [6] | Stability [7] | Ka [8] | Drug degradation [9] | Ratio [10] | Activity [11] | fold change (FC) [12] | Ka [13] | Drug degradation [14] | IC50 [15] | IC50 [16] | metabolised at 1.5 h [17] | Structure (SMILES)
Not Active | < 10% | Not Active | < 10% | Not Active | < 10% | Stable | 10.4 µM⁻¹ | – | 1.2 | Active | 1.11 | 12.8 µM⁻¹ | Not Active | – | – | – | CO[C@@H]1[C@H](O)[C@@H](COP(=O)([O-])OP(=O)([O-])NP(=O)([O-])OC[C@H]2O[C@@H](n3cnc4c(=O)[nH]c(N)nc43)[C@H](O)[C@@H]2O)O[C@H]1n1c[n+](C)c2c(=O)[nH]c(N)nc21.[Na+].[Na+]
Not Active | < 10% | Not Active | < 10% | Not Active | < 10% | Stable | 112 µM⁻¹ | Not Active | 1.4 | – | – | 155 µM⁻¹ | – | 2.62 µM | 3.58 µM | – | C[n+]1cn([C@@H]2O[C@H](COP(=O)([O-])NP(=O)([O-])OP(=O)([O-])OP(=O)([O-])OC[C@H]3O[C@@H](n4cnc5c(=O)[nH]c(N)nc54)[C@H](O)[C@@H]3O)[C@@H](O)[C@H]2O)c2nc(N)[nH]c(=O)c21.[Na+].[Na+].[Na+]
Not Active | < 10% | Not Active | < 10% | Not Active | < 10% | Stable | 10.1 µM⁻¹ | – | – | – | – | – | – | 8.49 µM | 5.97 µM | 20% | C[n+]1cn([C@@H]2O[C@H](COP(=O)([O-])OP(=O)([O-])NP(=O)([O-])OC[C@H]3O[C@@H](n4cnc5c(=O)[nH]c(N)nc54)[C@H](O)[C@@H]3O)[C@@H](O)[C@H]2O)c2nc(N)[nH]c(=O)c21.[Na+].[Na+]
Not Active | < 10% | Not Active | < 10% | Not Active | < 10% | Stable | 132 µM⁻¹ | Active | – | Active | 1.01 | – | – | – | – | – | CO[C@@H]1[C@H](O)[C@@H](COP(=O)([O-])OP(=O)([O-])OP(=O)([O-])NP(=O)([O-])OC[C@H]2O[C@@H](n3cnc4c(=O)[nH]c(N)nc43)[C@H](O)[C@@H]2O)O[C@H]1n1c[n+](C)c2c(=O)[nH]c(N)nc21.[Na+].[Na+].[Na+]
Not Active | < 10% | Not Active | < 10% | Not Active | < 10% | Stable | 18.5 µM⁻¹ | Not Active | 1.8 | Active | 1.13 | 33.6 µM⁻¹ | – | – | – | – | CO[C@@H]1[C@H](O)[C@@H](COP(=O)([O-])NP(=O)([O-])OP(=O)([O-])OC[C@H]2O[C@@H](n3cnc4c(=O)[nH]c(N)nc43)[C@H](O)[C@@H]2O)O[C@H]1n1c[n+](C)c2c(=O)[nH]c(N)nc21.[Na+].[Na+]
